Laboratory results from US20230085307A1, “PYRIDAZINONE COMPOUND AND HERBICIDE” (NISSAN CHEMICAL CORPORATION, priority 2019, published 2023).

Key:
barnyard grass [1] = assay: Test Example 3: herbicidal effect by foliage application, Wagner pot (Table 18, symbol H); assay type: in vivo, barnyard grass (Echinochloa crus-galli); settings: 320 g/ha
In short: (§1)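 Plants were sown in alluvial soil held under 0.1–0.5 cm standing water and grown 14 days in a greenhouse at 25–30 °C. An emulsifiable formulation, water-diluted to the set dose, was then sprayed onto the foliage, and effects were scored three weeks later using previously defined criteria.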

Chinese sprangletop = assay: Test Example 3: herbicidal effect by foliage application, Wagner pot (Table 18, symbol D); assay type: in vivo, chinese sprangletop (Leptochloa chinensis); settings: 320 g/ha
In short: as §1

rice flat sedge = assay: Test Example 3: herbicidal effect by foliage application, Wagner pot (Table 18, symbol E); assay type: in vivo, rice flat sedge (Cyperus iria); settings: 320 g/ha
In short: as §1

southern crabgrass [2] = assay: Test Example 4: herbicidal effect by soil treatment (Table 19, symbol F); assay type: in vivo, southern crabgrass (Digitaria ciliaris); settings: 320 g/ha
In short: (§2)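 Herbicidal effect was rated 3 weeks after treatment, using the scoring criteria of an earlier test. The compound, formulated as an emulsion and diluted in water to a set herbicide amount, had been sprayed uniformly on soil over freshly sown seeds. Growth took place in a greenhouse at 25° C. to 30° C.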

green foxtail [3] = assay: Test Example 4: herbicidal effect by soil treatment (Table 19, symbol G); assay type: in vivo, green foxtail (Setaria viridis); settings: 320 g/ha
In short: as §2

barnyard grass [4] = assay: Test Example 4: herbicidal effect by soil treatment (Table 19, symbol H); assay type: in vivo, barnyard grass (Echinochloa crus-galli); settings: 320 g/ha
In short: as §2

wild oat [5] = assay: Test Example 4: herbicidal effect by soil treatment (Table 19, symbol I); assay type: in vivo, wild oat (Avena fatua); settings: 320 g/ha
In short: as §2

blackgrass [6] = assay: Test Example 4: herbicidal effect by soil treatment (Table 19, symbol J); assay type: in vivo, blackgrass (Alopecurus myosuroides); settings: 320 g/ha
In short: as §2

Italian ryegrass [7] = assay: Test Example 4: herbicidal effect by soil treatment (Table 19, symbol K); assay type: in vivo, Italian ryegrass (Lolium multiflorum); settings: 320 g/ha
In short: as §2

windgrass [8] = assay: Test Example 4: herbicidal effect by soil treatment (Table 19, symbol L); assay type: in vivo, windgrass (Apera spica-venti); settings: 320 g/ha
In short: as §2

velvetleaf [9] = assay: Test Example 4: herbicidal effect by soil treatment (Table 19, symbol M); assay type: in vivo, velvetleaf (Abutilon theophrasti); settings: 320 g/ha
In short: as §2

redroot pigweed [10] = assay: Test Example 4: herbicidal effect by soil treatment (Table 19, symbol N); assay type: in vivo, redroot pigweed (Amaranthus retroflexus); settings: 320 g/ha
In short: as §2

lambsquarters [11] = assay: Test Example 4: herbicidal effect by soil treatment (Table 19, symbol O); assay type: in vivo, lambsquarters (Chenopodium album); settings: 320 g/ha
In short: as §2

chickweed [12] = assay: Test Example 4: herbicidal effect by soil treatment (Table 19, symbol P); assay type: in vivo, common chickweed (Stellaria media); settings: 320 g/ha
In short: as §2

persian speedwell [13] = assay: Test Example 4: herbicidal effect by soil treatment (Table 19, symbol R); assay type: in vivo, Persian speedwell (Veronica persica); settings: 320 g/ha
In short: as §2

southern crabgrass [14] = assay: Test Example 5: herbicidal effect by foliage application, plastic box (Table 20, symbol F); assay type: in vivo, southern crabgrass (Digitaria ciliaris); settings: foliage application, 320 g/ha, evaluated three weeks after application
In short: (§3)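 Foliar spray test: emulsion formulation diluted in water to a set application rate, sprayed onto 14-day-old plants raised in diluvial soil at 25° C to 30° C under glass. Both herbicidal effect and crop effect rated visually three weeks later.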

green foxtail [15] = assay: Test Example 5: herbicidal effect by foliage application, plastic box (Table 20, symbol G); assay type: in vivo, green foxtail (Setaria viridis); settings: foliage application, 320 g/ha, evaluated three weeks after application
In short: as §3

barnyard grass [16] = assay: Test Example 5: herbicidal effect by foliage application, plastic box (Table 20, symbol H); assay type: in vivo, barnyard grass (Echinochloa crus-galli); settings: foliage application, 320 g/ha, evaluated three weeks after application
In short: as §3

wild oat [17] = assay: Test Example 5: herbicidal effect by foliage application, plastic box (Table 20, symbol I); assay type: in vivo, wild oat (Avena fatua); settings: foliage application, 320 g/ha, evaluated three weeks after application
In short: as §3

blackgrass [18] = assay: Test Example 5: herbicidal effect by foliage application, plastic box (Table 20, symbol J); assay type: in vivo, blackgrass (Alopecurus myosuroides); settings: foliage application, 320 g/ha, evaluated three weeks after application
In short: as §3

Italian ryegrass [19] = assay: Test Example 5: herbicidal effect by foliage application, plastic box (Table 20, symbol K); assay type: in vivo, Italian ryegrass (Lolium multiflorum); settings: foliage application, 320 g/ha, evaluated three weeks after application
In short: as §3

windgrass [20] = assay: Test Example 5: herbicidal effect by foliage application, plastic box (Table 20, symbol L); assay type: in vivo, windgrass (Apera spica-venti); settings: foliage application, 320 g/ha, evaluated three weeks after application
In short: as §3

velvetleaf [21] = assay: Test Example 5: herbicidal effect by foliage application, plastic box (Table 20, symbol M); assay type: in vivo, velvetleaf (Abutilon theophrasti); settings: foliage application, 320 g/ha, evaluated three weeks after application
In short: as §3

redroot pigweed [22] = assay: Test Example 5: herbicidal effect by foliage application, plastic box (Table 20, symbol N); assay type: in vivo, redroot pigweed (Amaranthus retroflexus); settings: foliage application, 320 g/ha, evaluated three weeks after application
In short: as §3

lambsquarters [23] = assay: Test Example 5: herbicidal effect by foliage application, plastic box (Table 20, symbol O); assay type: in vivo, lambsquarters (Chenopodium album); settings: foliage application, 320 g/ha, evaluated three weeks after application
In short: as §3

chickweed [24] = assay: Test Example 5: herbicidal effect by foliage application, plastic box (Table 20, symbol P); assay type: in vivo, common chickweed (Stellaria media); settings: foliage application, 320 g/ha, evaluated three weeks after application
In short: as §3

persian speedwell [25] = assay: Test Example 5: herbicidal effect by foliage application, plastic box (Table 20, symbol R); assay type: in vivo, Persian speedwell (Veronica persica); settings: foliage application, 320 g/ha, evaluated three weeks after application
In short: as §3

COc1ccc(-c2sc3ccc(F)cc3c2-c2c(O)c(C)nn(C)c2=O)cc1F [2-086]
herbicidal effect on H (barnyard grass), rating 0-5 (barnyard grass [1]): 3 (Herbicidal rate of 40% or more and less than 70%)
herbicidal effect on D (Chinese sprangletop), rating 0-5 (Chinese sprangletop): 3 (Herbicidal rate of 40% or more and less than 70%)
herbicidal effect on E (rice flat sedge), rating 0-5 (rice flat sedge): 5 (Herbicidal rate of 90% or more (almost completely withered))
herbicidal effect rating, F: southern crabgrass (southern crabgrass [2]): 1 (Herbicidal rate of 5% or more and less than 20%)
herbicidal effect rating, G: green foxtail (green foxtail [3]): 3 (Herbicidal rate of 40% or more and less than 70%)
herbicidal effect rating, H: barnyard grass (barnyard grass [4]): 3 (Herbicidal rate of 40% or more and less than 70%)
herbicidal effect rating, I: wild oat (wild oat [5]): 0 (Herbicidal rate of 5% or less (almost no effect))
herbicidal effect rating, J: blackgrass (blackgrass [6]): 0 (Herbicidal rate of 5% or less (almost no effect))
herbicidal effect rating, K: Italian ryegrass (Italian ryegrass [7]): 0 (Herbicidal rate of 5% or less (almost no effect))
herbicidal effect rating, L: windgrass (windgrass [8]): 0 (Herbicidal rate of 5% or less (almost no effect))
herbicidal effect rating, M: velvetleaf (velvetleaf [9]): 4 (Herbicidal rate of 70% or more and less than 90%)
herbicidal effect rating, N: redroot pigweed (redroot pigweed [10]): 4 (Herbicidal rate of 70% or more and less than 90%)
herbicidal effect rating, O: lambsquarters (lambsquarters [11]): 5 (Herbicidal rate of 90% or more (almost completely withered))
herbicidal effect rating, P: chickweed (chickweed [12]): 0 (Herbicidal rate of 5% or less (almost no effect))
herbicidal effect rating, R: persian speedwell (persian speedwell [13]): 5 (Herbicidal rate of 90% or more (almost completely withered))
herbicidal effect on F: southern crabgrass (southern crabgrass [14]): 0 (Herbicidal rate of 5% or less (almost no effect))
herbicidal effect on G: green foxtail (green foxtail [15]): 3 (Herbicidal rate of 40% or more and less than 70%)
herbicidal effect on H: barnyard grass (barnyard grass [16]): 3 (Herbicidal rate of 40% or more and less than 70%)
herbicidal effect on I: wild oat (wild oat [17]): 0 (Herbicidal rate of 5% or less (almost no effect))
herbicidal effect on J: blackgrass (blackgrass [18]): 0 (Herbicidal rate of 5% or less (almost no effect))
herbicidal effect on K: Italian ryegrass (Italian ryegrass [19]): 0 (Herbicidal rate of 5% or less (almost no effect))
herbicidal effect on L: windgrass (windgrass [20]): 0 (Herbicidal rate of 5% or less (almost no effect))
herbicidal effect on M: velvetleaf (velvetleaf [21]): 5 (Herbicidal rate of 90% or more (almost completely withered))
herbicidal effect on N: redroot pigweed (redroot pigweed [22]): 4 (Herbicidal rate of 70% or more and less than 90%)
herbicidal effect on O: lambsquarters (lambsquarters [23]): 4 (Herbicidal rate of 70% or more and less than 90%)
herbicidal effect on P: chickweed (chickweed [24]): 5 (Herbicidal rate of 90% or more (almost completely withered))
herbicidal effect on R: persian speedwell (persian speedwell [25]): 5 (Herbicidal rate of 90% or more (almost completely withered))
